From ChEMBL document CHEMBL5316357, “Discovery of Linvencorvir (RG7907), a Hepatitis B Virus Core Protein Allosteric Modulator, for the Treatment of Chronic HBV Infection” (J Med Chem, 2023)

Key:
[1] = Oral bioavailability in male cynomolgus monkey at 3 mg/kg by LC-MS/MS analysis; format: ADME, organism-based, Macaca fascicularis; conditions: in vivo
[2] = molecular target: Cytochrome P450 2C19 (Homo sapiens, UniProt P33261); experiment: Inhibition of CYP2C19 (unknown origin); format: ADME
[3] = AUClast in Wistar Han rat at 2 mg/kg,iv by LC-MS/MS analysis; format: ADME, organism-based; design: dose 2 mg/kg, route iv; conditions: in vivo
[4] = Half life in male Wistar Han rat at 30 mg/kg,po by LC-MS/MS analysis; format: ADME, organism-based; conditions: in vivo
[5] = Oral bioavailability in male Wistar Han rat at 30 mg/kg by LC-MS/MS analysis; format: ADME, organism-based; conditions: in vivo
[6] = AUClast in male Wistar Han rat at 30 mg/kg,po by LC-MS/MS analysis; format: ADME, organism-based; design: dose 30 mg/kg, route po; conditions: in vivo
[7] = Clearance in cynomolgus monkey at 2 mg/kg,iv by LC-MS/MS analysis; format: ADME, organism-based, Macaca fascicularis; conditions: in vivo
[8] = Tmax in male minipig at 10 mg/kg,po by LC-MS/MS analysis; format: ADME, organism-based, Sus scrofa domesticus; conditions: pig, in vivo
[9] = Half life in cynomolgus monkey at 2 mg/kg,iv by LC-MS/MS analysis; format: ADME, organism-based, Macaca fascicularis; conditions: in vivo
[10] = AUClast in male Wistar Han rat at 3 mg/kg,po by LC-MS/MS analysis; format: ADME, organism-based; design: dose 3 mg/kg, route po; conditions: in vivo
[11] = AUClast in cynomolgus monkey at 2 mg/kg,iv by LC-MS/MS analysis; format: ADME, organism-based, Macaca fascicularis; design: dose 2 mg/kg, route iv; conditions: in vivo
[12] = Half life in Wistar Han rat at 2 mg/kg,iv by LC-MS/MS analysis; format: ADME, organism-based; conditions: in vivo
[13] = Tmax in female Wistar Han rat at 10 mg/kg,po by LC-MS/MS analysis; format: ADME, organism-based; conditions: in vivo
[14] = Half life in female minipig at 10 mg/kg,po by LC-MS/MS analysis; format: ADME, organism-based, Sus scrofa domesticus; conditions: pig, in vivo
[15] = Clearance in minipig at 2 mg/kg,iv by LC-MS/MS analysis; format: ADME, organism-based, Sus scrofa domesticus; conditions: pig, in vivo
[16] = Tmax in male Wistar Han rat at 10 mg/kg,po by LC-MS/MS analysis; format: ADME, organism-based; conditions: in vivo
[17] = AUClast in male Wistar Han rat at 10 mg/kg,po by LC-MS/MS analysis; format: ADME, organism-based; design: dose 10 mg/kg, route po; conditions: in vivo
[18] = Cmax in female minipig at 3 mg/kg,po by LC-MS/MS analysis; format: ADME, organism-based, Sus scrofa domesticus; design: dose 3 mg/kg, route po; conditions: pig, in vivo
[19] = molecular target: T1, Cytochrome P450 1A2 (Homo sapiens, UniProt P05177); experiment: Inhibition of CYP1A2 (unknown origin); format: ADME
T1 sequence (P05177 whole entry): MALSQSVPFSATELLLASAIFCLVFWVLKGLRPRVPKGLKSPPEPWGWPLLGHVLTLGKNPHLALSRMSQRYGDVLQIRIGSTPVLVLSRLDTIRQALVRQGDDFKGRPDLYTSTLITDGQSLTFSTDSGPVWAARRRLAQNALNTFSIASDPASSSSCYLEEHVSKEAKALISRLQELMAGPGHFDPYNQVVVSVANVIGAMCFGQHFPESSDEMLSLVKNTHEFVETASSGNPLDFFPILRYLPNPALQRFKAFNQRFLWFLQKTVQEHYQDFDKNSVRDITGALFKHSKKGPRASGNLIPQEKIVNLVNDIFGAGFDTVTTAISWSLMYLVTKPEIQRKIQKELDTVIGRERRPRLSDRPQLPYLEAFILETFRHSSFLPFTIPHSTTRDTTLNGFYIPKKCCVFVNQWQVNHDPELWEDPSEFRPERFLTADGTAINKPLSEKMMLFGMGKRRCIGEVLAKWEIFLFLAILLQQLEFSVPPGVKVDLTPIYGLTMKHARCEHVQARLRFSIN

[20] = Half life in mouse plasma at 1 mg/kg,iv; format: ADME, organism-based
[21] = Cmax in female cynomolgus monkey at 30 mg/kg,po by LC-MS/MS analysis; format: ADME, organism-based, Macaca fascicularis; design: dose 30 mg/kg, route po; conditions: in vivo
[22] = Volume of distribution at steady state in cynomolgus monkey at 2 mg/kg,iv by LC-MS/MS analysis; format: ADME, organism-based, Macaca fascicularis; conditions: in vivo, read-out: Vdss
[23] = Tmax in female cynomolgus monkey at 3 mg/kg,po by LC-MS/MS analysis; format: ADME, organism-based, Macaca fascicularis; conditions: in vivo
[24] = molecular target: Cytochrome P450 3A4 (Homo sapiens, UniProt P08684); experiment: Inhibition of CYP3A4 (unknown origin); format: ADME
[25] = Ratio of AUC (0 to infinity) in liver to plasma of mouse at 3 mg/kg,po; format: ADME, organism-based; conditions: read-out: Ratio AUC
[26] = Half life in female minipig at 3 mg/kg,po by LC-MS/MS analysis; format: ADME, organism-based, Sus scrofa domesticus; conditions: pig, in vivo
[27] = Cmax in female minipig at 10 mg/kg,po by LC-MS/MS analysis; format: ADME, organism-based, Sus scrofa domesticus; design: dose 10 mg/kg, route po; conditions: pig, in vivo
[28] = Volume of distribution at steady state in mouse plasma at 1 mg/kg,iv; format: ADME, organism-based; conditions: read-out: Vdss
[29] = Cmax in male Wistar Han rat at 30 mg/kg,po by LC-MS/MS analysis; format: ADME, organism-based; design: dose 30 mg/kg, route po; conditions: in vivo
[30] = Half life in male cynomolgus monkey at 30 mg/kg,po by LC-MS/MS analysis; format: ADME, organism-based, Macaca fascicularis; conditions: in vivo
[31] = Half life in male minipig at 30 mg/kg,po by LC-MS/MS analysis; format: ADME, organism-based, Sus scrofa domesticus; conditions: pig, in vivo
[32] = Oral bioavailability in male minipig at 10 mg/kg by LC-MS/MS analysis; format: ADME, organism-based, Sus scrofa domesticus; conditions: pig, in vivo
[33] = Oral bioavailability in female Wistar Han rat at 10 mg/kg by LC-MS/MS analysis; format: ADME, organism-based; conditions: in vivo
[34] = Half life in female cynomolgus monkey at 10 mg/kg,po by LC-MS/MS analysis; format: ADME, organism-based, Macaca fascicularis; conditions: in vivo
[35] = Toxicity in minipig assessed as NOAEL administrated upto 28 days; design: species or system Sus scrofa domesticus; conditions: pig, in vivo; time < 28 day
[36] = AUClast in female minipig at 3 mg/kg,po by LC-MS/MS analysis; format: ADME, organism-based, Sus scrofa domesticus; design: dose 3 mg/kg, route po; conditions: pig, in vivo
[37] = Cmax in female Wistar Han rat at 3 mg/kg,po by LC-MS/MS analysis; format: ADME, organism-based; design: dose 3 mg/kg, route po; conditions: in vivo
[38] = Octanol-water partition coefficient, logD of the compound at pH 7.4; format: physicochemical
[39] = Oral bioavailability in female minipig at 10 mg/kg by LC-MS/MS analysis; format: ADME, organism-based, Sus scrofa domesticus; conditions: pig, in vivo
[40] = Cmax in male minipig at 10 mg/kg,po by LC-MS/MS analysis; format: ADME, organism-based, Sus scrofa domesticus; design: dose 10 mg/kg, route po; conditions: pig, in vivo
[41] = Half life in female minipig at 30 mg/kg,po by LC-MS/MS analysis; format: ADME, organism-based, Sus scrofa domesticus; conditions: pig, in vivo
[42] = Cmax in male Wistar Han rat at 3 mg/kg,po by LC-MS/MS analysis; format: ADME, organism-based; design: dose 3 mg/kg, route po; conditions: in vivo
[43] = Half life in male Wistar Han rat at 10 mg/kg,po by LC-MS/MS analysis; format: ADME, organism-based; conditions: in vivo
[44] = AUC (0-infinity) in rat plasma at 3 mg/kg,po; format: ADME, organism-based; design: dose 3 mg/kg, route po; conditions: plasma
[45] = AUClast in male cynomolgus monkey at 30 mg/kg,po by LC-MS/MS analysis; format: ADME, organism-based, Macaca fascicularis; design: dose 30 mg/kg, route po; conditions: in vivo
[46] = Cmax in male cynomolgus monkey at 10 mg/kg,po by LC-MS/MS analysis; format: ADME, organism-based, Macaca fascicularis; design: dose 10 mg/kg, route po; conditions: in vivo
[47] = Clearance in Wistar Han rat at 2 mg/kg,iv by LC-MS/MS analysis; format: ADME, organism-based; conditions: in vivo
[48] = Tmax in male cynomolgus monkey at 30 mg/kg,po by LC-MS/MS analysis; format: ADME, organism-based, Macaca fascicularis; conditions: in vivo

Cytochrome P450 3A4, sequence (P08684 whole entry): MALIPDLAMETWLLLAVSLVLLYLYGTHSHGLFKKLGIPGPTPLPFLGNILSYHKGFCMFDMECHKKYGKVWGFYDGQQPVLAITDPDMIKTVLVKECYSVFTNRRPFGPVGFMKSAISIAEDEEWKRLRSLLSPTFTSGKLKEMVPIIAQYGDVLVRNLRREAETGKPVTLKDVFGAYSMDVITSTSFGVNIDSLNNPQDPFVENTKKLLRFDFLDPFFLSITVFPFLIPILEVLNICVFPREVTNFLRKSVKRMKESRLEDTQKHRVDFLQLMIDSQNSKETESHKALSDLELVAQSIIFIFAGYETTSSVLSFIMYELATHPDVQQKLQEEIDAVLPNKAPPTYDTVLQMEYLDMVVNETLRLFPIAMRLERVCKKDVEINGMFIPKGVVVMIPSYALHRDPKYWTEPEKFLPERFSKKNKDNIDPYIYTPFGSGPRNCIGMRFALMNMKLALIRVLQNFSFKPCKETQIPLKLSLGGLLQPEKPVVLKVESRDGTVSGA
Cytochrome P450 2C19, sequence (P33261 whole entry): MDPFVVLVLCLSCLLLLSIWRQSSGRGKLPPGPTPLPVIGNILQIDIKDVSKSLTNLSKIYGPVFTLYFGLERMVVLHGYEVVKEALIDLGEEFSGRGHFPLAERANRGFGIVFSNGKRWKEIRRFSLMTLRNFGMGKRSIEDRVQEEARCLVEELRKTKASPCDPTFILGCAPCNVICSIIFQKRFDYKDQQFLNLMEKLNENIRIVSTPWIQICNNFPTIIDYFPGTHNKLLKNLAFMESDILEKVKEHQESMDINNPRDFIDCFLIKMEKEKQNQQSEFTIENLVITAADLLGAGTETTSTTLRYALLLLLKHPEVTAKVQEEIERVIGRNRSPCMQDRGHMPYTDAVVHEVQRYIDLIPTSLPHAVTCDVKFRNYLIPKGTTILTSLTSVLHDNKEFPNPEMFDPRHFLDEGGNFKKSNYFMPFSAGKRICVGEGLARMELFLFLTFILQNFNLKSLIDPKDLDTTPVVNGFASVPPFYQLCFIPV

## CCOC(=O)C1=C(CN2CCN3C(=O)N(CC(C)(C)C(=O)O)C[C@@H]3C2)NC(c2nccs2)=N[C@H]1c1cccc(F)c1C [LINVENCORVIR]
[1]
  bioavailability: 10.3%
[2]
  IC50: > 50 µM
[3]
  AUC(0-t): 1120 ng·h/mL
[4]
  half-life: 2.79 h
[5]
  bioavailability: 50%
[6]
  AUC(0-t): 8500 ng·h/mL
[7]
  clearance: 23.6 mL/min/kg
[8]
  Tmax: 1 h
[9]
  half-life: 1.77 h
[10]
  AUC(0-t): 209 ng·h/mL
[11]
  AUC(0-t): 1490 ng·h/mL
[12]
  half-life: 1.46 h
[13]
  Tmax: 1 h
[14]
  half-life: 9.7 h
[15]
  clearance: 24.1 mL/min/kg
[16]
  Tmax: 1.5 h
[17]
  AUC(0-t): 1440 ng·h/mL
[18]
  Cmax: 46 ng/mL
[19]
  IC50: > 50 µM
[20]
  half-life: 0.9 h
[21]
  Cmax: 841 ng/mL
[22]
  Vd: 0.67 L/kg
[23]
  Tmax: 0.25 h
[24]
  IC50: > 50 µM
[25]
  Kp: 32
[26]
  half-life: 9.68 h
[27]
  Cmax: 132 ng/mL
[28]
  Vd: 1 L/kg
[29]
  Cmax: 1350 ng/mL
[30]
  half-life: 6.12 h
[31]
  half-life: 7.64 h
[32]
  bioavailability: 18.6%
[33]
  bioavailability: 36.4%
[34]
  half-life: 8.13 h
[35]
  NOAEL at 672 h: 350 mg/kg
[36]
  AUC(0-t): 201 ng·h/mL
[37]
  Cmax: 80.4 ng/mL
[38]
  logD: 1.75
[39]
  bioavailability: 11.4%
[40]
  Cmax: 248 ng/mL
[41]
  half-life: 8.26 h
[42]
  Cmax: 70.2 ng/mL
[43]
  half-life: 1.43 h
[44]
  AUC(0-inf): 70 ng·h/mL
[45]
  AUC(0-t): 7120 ng·h/mL
[46]
  Cmax: 298 ng/mL
[47]
  clearance: 30.5 mL/min/kg
[48]
  Tmax: 2 h
